Experimental findings from patent publication US20010042341A1, “Vase-added compositions for controlling plant and flower moisture transpiration rates” (priority 2000, published 2001) are described below.

Each structure is given as a SMILES string.

The subject of the experiment is microorganisms. Particulars: display water (vase water) of cut flowers; prior art antimicrobial.

For `O=C(O)CC(O)(CC(=O)O)C(=O)O.Oc1cccc2cccnc12` [8-hydroxy quinoline citrate], the growth of microorganisms entry is “enhance the growth of microorganisms after an initial diminution of their level”.
